# Reference: patent US8575201B2 (Boehringer Ingelheim International GmbH, priority 2010, dated 2013)
# Key:
# [1] = molecular target: recombinant human FLAP protein (Homo sapiens (Human), UniProt P20292); assay: FLAP binding assay (Scintillation Proximity Assay, displacement of [125I]L-691,831); details: read-out: FLAP SPA IC50
# How it was run: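 Scintillation proximity displacement of an iodinated (125I) FLAP inhibitor by test compounds, using 100,000×g membrane fraction from lysed cells. Final beads 200 μg/well and protein 5 μg/well; plates shaken 2 h before reading.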
# [2] = system: synthesis of LTB4 in human whole blood; assay: Human whole blood LTB4 production inhibition assay; format: cell-based; details: calcimycin stimulated, read-out: hWB LTB4 IC50
# How it was run: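 LTB4 levels in plasma were measured by antibody-based HTRF after heparinized human whole blood, pretreated with compound (15 min, 37° C), was challenged with 20 μM calcimycin for 30 min at 37° C.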
# Chain of recombinant human FLAP protein (P20292 whole entry): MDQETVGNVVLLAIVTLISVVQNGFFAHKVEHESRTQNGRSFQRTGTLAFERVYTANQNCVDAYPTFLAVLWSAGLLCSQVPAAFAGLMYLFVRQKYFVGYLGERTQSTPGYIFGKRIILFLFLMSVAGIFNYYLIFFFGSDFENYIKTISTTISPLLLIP
SMILES,IC50 [1],IC50 [2]
"Nc1ncc(-c2ccc(C3(c4noc(-c5cnccc5Cl)n4)CCC3)cn2)cn1 [Example 88, 5-(5-{1-[5-(4-chloropyridin-3-yl)-1,2,4-oxadiazol-3-yl]cyclobutyl}pyridin-2-yl)pyrimidin-2-amine]",7.3 nM,490 nM
"Nc1ncc(-c2ccc(C3(c4noc(-c5ccc(N6CCOCC6)nc5)n4)CCC3)cn2)cn1 [Example 89, 5-[5-(1-{5-[6-(morpholin-4-yl)pyridin-3-yl]-1,2,4-oxadiazol-3-yl}cyclobutyl)pyridin-2-yl]pyrimidin-2-amine]",2.7 nM,180 nM
"Nc1ncc(-c2ccc(C3(c4noc(-c5cn[nH]c5)n4)CCC3)cn2)cn1 [Example 90, 5-(5-{1-[5-(1H-pyrazol-4-yl)-1,2,4-oxadiazol-3-yl]cyclobutyl}pyridin-2-yl)pyrimidin-2-amine]",7 nM,140 nM
"Nc1ncc(-c2ccc(C3(c4noc(-c5ccnc(O)c5)n4)CCC3)cn2)cn1 [Example 91, 4-(3-{1-[6-(2-aminopyrimidin-5-yl)pyridin-3-yl]cyclobutyl}-1,2,4-oxadiazol-5-yl)pyridin-2-ol]",24 nM,330 nM
"Nc1ncc(-c2ccc(C3(c4noc(-c5ccncn5)n4)CCC3)cn2)cn1 [Example 92, 5-(5-{1-[5-(pyrimidin-4-yl)-1,2,4-oxadiazol-3-yl]cyclobutyl}pyridin-2-yl)pyrimidin-2-amine]",130 nM,2200 nM
"COc1cc(-c2nc(C3(c4ccc(-c5cnc(N)nc5)nc4)CCC3)no2)ccn1 [Example 93, 5-(5-{1-[5-(2-methoxypyridin-4-yl)-1,2,4-oxadiazol-3-yl]cyclobutyl}pyridin-2-yl)pyrimidin-2-amine]",9.6 nM,400 nM
"Cc1nc(C)c(-c2nc(C3(c4ccc(-c5cnc(N)nc5)nc4)CCC3)no2)s1 [Example 94, 5-(5-{1-[5-(2,4-dimethyl-1,3-thiazol-5-yl)-1,2,4-oxadiazol-3-yl]cyclobutyl}pyridin-2-yl)pyrimidin-2-amine]",8.1 nM,650 nM
"Nc1ncc(-c2ccc(C3(c4noc(-c5ccc[nH]c5=O)n4)CCC3)cn2)cn1 [Example 95, 3-(3-{1-[6-(2-aminopyrimidin-5-yl)pyridin-3-yl]cyclobutyl}-1,2,4-oxadiazol-5-yl)pyridin-2(1H)-one]",29 nM,> 5000 nM
"COc1ccc(-c2nc(C3(c4ccc(-c5cnc(N)nc5)nc4)CCC3)no2)c(OC)n1 [Example 96, 5-(5-{1-[5-(2,6-dimethoxypyridin-3-yl)-1,2,4-oxadiazol-3-yl]cyclobutyl}pyridin-2-yl)pyrimidin-2-amine]",7.3 nM,1100 nM
"Cc1ccc(-c2nc(C3(c4ccc(-c5cnc(N)nc5)nc4)CCC3)no2)c(O)n1 [Example 97, 3-(3-{1-[6-(2-aminopyrimidin-5-yl)pyridin-3-yl]cyclobutyl}-1,2,4-oxadiazol-5-yl)-6-methylpyridin-2-ol]",19 nM,> 5000 nM
"Nc1ncc(-c2ccc(C3(c4noc(-c5cnco5)n4)CCC3)cn2)cn1 [Example 98, 5-(5-{1-[5-(1,3-oxazol-5-yl)-1,2,4-oxadiazol-3-yl]cyclobutyl}pyridin-2-yl)pyrimidin-2-amine]",110 nM,> 5000 nM
"Nc1ncc(-c2ccc(C3(c4noc(-c5ccc(Cl)nc5)n4)CCC3)cn2)cn1 [Example 99, 5-(5-{1-[5-(6-chloropyridin-3-yl)-1,2,4-oxadiazol-3-yl]cyclobutyl}pyridin-2-yl)pyrimidin-2-amine]",7.5 nM,660 nM
"Nc1ncc(-c2ccc(C3(c4noc(-c5cncnc5)n4)CCC3)cn2)cn1 [Example 100, 5-(5-{1-[5-(pyrimidin-5-yl)-1,2,4-oxadiazol-3-yl]cyclobutyl}pyridin-2-yl)pyrimidin-2-amine]",120 nM,960 nM
"Cc1cc(-c2nc(C3(c4ccc(-c5cnc(N)nc5)nc4)CCC3)no2)ccn1 [Example 101, 5-(5-{1-[5-(2-methylpyridin-4-yl)-1,2,4-oxadiazol-3-yl]cyclobutyl}pyridin-2-yl)pyrimidin-2-amine]",24 nM,820 nM
"Cn1cc(-c2nc(C3(c4ccc(-c5cnc(N)nc5)nc4)CCC3)no2)cn1 [Example 102, 5-(5-{1-[5-(1-methyl-1H-pyrazol-4-yl)-1,2,4-oxadiazol-3-yl]cyclobutyl}pyridin-2-yl)pyrimidin-2-amine]",13 nM,270 nM
"Cc1n[nH]c(C)c1-c1nc(C2(c3ccc(-c4cnc(N)nc4)nc3)CCC2)no1 [Example 103, 5-(5-{1-[5-(3,5-dimethyl-1H-pyrazol-4-yl)-1,2,4-oxadiazol-3-yl]cyclobutyl}pyridin-2-yl)pyrimidin-2-amine]",14 nM,1000 nM
"Nc1ncc(-c2ccc(C3(c4noc(-c5ccnnc5)n4)CCC3)cn2)cn1 [Example 104, 5-(5-{1-[5-(pyridazin-4-yl)-1,2,4-oxadiazol-3-yl]cyclobutyl}pyridin-2-yl)pyrimidin-2-amine]",110 nM,2100 nM
"Nc1ncc(-c2ccc(C3(c4noc(-c5cccnc5N)n4)CCC3)cn2)cn1 [Example 105, 5-(5-{1-[5-(2-aminopyridin-3-yl)-1,2,4-oxadiazol-3-yl]cyclobutyl}pyridin-2-yl)pyrimidin-2-amine]",17 nM,570 nM
"Nc1ncc(-c2ccc(C3(c4noc(-c5cnccc5N)n4)CCC3)cn2)cn1 [Example 106, 5-(5-{1-[5-(4-aminopyridin-3-yl)-1,2,4-oxadiazol-3-yl]cyclobutyl}pyridin-2-yl)pyrimidin-2-amine]",31 nM,840 nM
"Nc1ncc(-c2ccc(C3(c4noc(-c5cnccc5O)n4)CCC3)cn2)cn1 [Example 107, 3-(3-{1-[6-(2-aminopyrimidin-5-yl)pyridin-3-yl]cyclobutyl}-1,2,4-oxadiazol-5-yl)pyridin-4-ol]",190 nM,4000 nM
"Nc1ncc(-c2ccc(C3(c4noc(-c5ccc(=O)[nH]c5)n4)CCC3)cn2)cn1 [Example 108, 5-(3-{1-[6-(2-aminopyrimidin-5-yl)pyridin-3-yl]cyclobutyl}-1,2,4-oxadiazol-5-yl)pyridin-2(1H)-one]",48 nM,720 nM
"Nc1ncc(-c2ccc(C3(c4noc(-c5cccnc5C(F)(F)F)n4)CCC3)cn2)cn1 [Example 109, 5-[5-(1-{5-[2-(trifluoromethyl)pyridin-3-yl]-1,2,4-oxadiazol-3-yl}cyclobutyl)pyridin-2-yl]pyrimidin-2-amine]",14 nM,1500 nM

# Now from value to compound:
IC50 [1],IC50 [2],SMILES
2.4 nM,310 nM,"CN(C)c1ccc(-c2nc(C3(c4ccc(-c5cnc(N)nc5)nc4)CCC3)no2)cn1 [Example 110, 5-[5-(1-{5-[6-(dimethylamino)pyridin-3-yl]-1,2,4-oxadiazol-3-yl}cyclobutyl)pyridin-2-yl]pyrimidin-2-amine]"
4.2 nM,74 nM,"Nc1ccc(-c2nc(C3(c4ccc(-c5cnc(N)nc5)nc4)CCC3)no2)cn1 [Example 111, 5-(5-{1-[5-(6-aminopyridin-3-yl)-1,2,4-oxadiazol-3-yl]cyclobutyl}pyridin-2-yl)pyrimidin-2-amine]"
3.3 nM,570 nM,"Nc1ncc(-c2ccc(C3(c4noc(-c5ccc(N6CCCC6)nc5)n4)CCC3)cn2)cn1 [Example 112, 5-[5-(1-{5-[6-(pyrrolidin-1-yl)pyridin-3-yl]-1,2,4-oxadiazol-3-yl}cyclobutyl)pyridin-2-yl]pyrimidin-2-amine]"
2.4 nM,100 nM,"CNc1ccc(-c2nc(C3(c4ccc(-c5cnc(N)nc5)nc4)CCC3)no2)cn1 [Example 113, 5-[5-(1-{5-[6-(methylamino)pyridin-3-yl]-1,2,4-oxadiazol-3-yl}cyclobutyl)pyridin-2-yl]pyrimidin-2-amine]"
1.5 nM,280 nM,"CC(C)Nc1ccc(-c2nc(C3(c4ccc(-c5cnc(N)nc5)nc4)CCC3)no2)cn1 [Example 114, 5-[5-(1-{5-[6-(propan-2-ylamino)pyridin-3-yl]-1,2,4-oxadiazol-3-yl}cyclobutyl)pyridin-2-yl]pyrimidin-2-amine]"
1.9 nM,49 nM,"Nc1ncc(-c2ccc(C3(c4noc(-c5ccc(NCCO)nc5)n4)CCC3)cn2)cn1 [Example 115, 2-{[5-(3-{1-[6-(2-aminopyrimidin-5-yl)pyridin-3-yl]cyclobutyl}-1,2,4-oxadiazol-5-yl)pyridin-2-yl]amino}ethanol]"
4.3 nM,140 nM,"CN(CCO)c1ccc(-c2nc(C3(c4ccc(-c5cnc(N)nc5)nc4)CCC3)no2)cn1 [Example 116, 2-{[5-(3-{1-[6-(2-aminopyrimidin-5-yl)pyridin-3-yl]cyclobutyl}-1,2,4-oxadiazol-5-yl)pyridin-2-yl](methyl)amino}ethanol]"
3 nM,120 nM,"COCCN(C)c1ccc(-c2nc(C3(c4ccc(-c5cnc(N)nc5)nc4)CCC3)no2)cn1 [Example 117, 5-{5-[1-(5-{6-[(2-methoxyethyl)(methyl)amino]pyridin-3-yl}-1,2,4-oxadiazol-3-yl)cyclobutyl]pyridin-2-yl}pyrimidin-2-amine]"
2.8 nM,84 nM,"COCCNc1ccc(-c2nc(C3(c4ccc(-c5cnc(N)nc5)nc4)CCC3)no2)cn1 [Example 118, 5-{5-[1-(5-{6-[(2-methoxyethyl)amino]pyridin-3-yl}-1,2,4-oxadiazol-3-yl)cyclobutyl]pyridin-2-yl}pyrimidin-2-amine]"
62 nM,230 nM,"CS(=O)(=O)c1ccc(-c2nc(C3(c4ccc(-c5cnc(N)nc5)nc4)CCC3)no2)cn1 [Example 119, 5-[5-(1-{5-[6-(methylsulfonyl)pyridin-3-yl]-1,2,4-oxadiazol-3-yl}-cyclobutyl)pyridin-2-yl]pyrimidin-2-amine]"
